Test results: PubChem BioAssay (NCI)
Values joined by “and” are separate entries in the source; they are usually repeats but may differ in a detail not shown here. Equal values may be shown once.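 Protocol summary: plate cells (96-well), add compound at 5 concentrations, incubate 48 h, interpolate endpoints linearly. GI50 marks 50% less growth. TGI: total growth inhibition.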

Columns and labels:
Assay in all cases: growth of human tumour cells (NCI), 48 h
SK-OV-3 ovarian = test system: SK-OV-3 ovarian
MOLT-4 leukemia = test system: MOLT-4 leukemia
HCC-2998 colon = test system: HCC-2998 colon
HT29 colon = test system: HT29 colon
RPMI-8226 leukemia = test system: RPMI-8226 leukemia
ACHN renal = test system: ACHN renal
SF-268 CNS = test system: SF-268 CNS
SW-620 colon = test system: SW-620 colon
CCRF-CEM leukemia = test system: CCRF-CEM leukemia
MDA-MB-231 breast = test system: MDA-MB-231 breast

Structure (SMILES) | TGI (SK-OV-3 ovarian) [µM] | TGI (MOLT-4 leukemia) [µM] | TGI (HCC-2998 colon) [µM] | TGI (HT29 colon) [µM] | TGI (RPMI-8226 leukemia) [µM] | TGI (ACHN renal) [µM] | TGI (SF-268 CNS) [µM] | TGI (SW-620 colon) [µM] | TGI (CCRF-CEM leukemia) [µM] | GI50 (HCC-2998 colon) | GI50 (SK-OV-3 ovarian) [µM] | GI50 (MOLT-4 leukemia) [µM] | GI50 (HT29 colon) [µM] | GI50 (MDA-MB-231 breast) [µM] | TGI (MDA-MB-231 breast) [µM] | GI50 (RPMI-8226 leukemia) [µM] | GI50 (ACHN renal) [µM] | GI50 (SF-268 CNS) [µM] | GI50 (SW-620 colon) [µM] | GI50 (CCRF-CEM leukemia) [µM]
CCOC(=O)/C(C#N)=C1/C(O)=C(C(=O)OC)C(C(=O)OC)=C1C(=O)OC | > 100 | > 100 | > 100 | > 100 | > 100 | > 100 | > 100 | > 100 | > 100 |  |  |  |  |  |  |  |  |  |  | 
CC1=C[P+](Cc2ccccc2)(c2ccccc2)CC1 (stereo unspecified) | > 100 | > 100 | > 100 | > 100 | > 100 | > 100 |  | > 100 | > 100 | 97.7 µM and > 100 µM and 39.3 µM |  |  |  |  |  |  |  |  |  | 
O=S(O)CCCSSc1ccccc1 | > 100 | 70.2 | > 100 | > 100 |  | > 100 | > 100 | > 100 | 93.3 |  |  |  |  |  |  |  |  |  |  | 
N#CCC(=O)N/N=C(\C(=O)Nc1ccc(Cl)c(Cl)c1)C1CN(c2ccccc2)N=C1N (stereo unspecified) | > 100 | > 100 | > 100 | > 100 | > 100 | > 100 | > 100 |  | > 100 |  |  |  |  |  |  |  |  |  |  | 
COc1ccc2nc3ccccc3c(NCCCN(C)CCCl)c2c1 | 3.34 | 0.888 | 1.69 | 2.66 | 1.12 | 0.695 | 2.75 | 1.48 | 1.58 |  |  |  |  |  |  |  |  |  |  | 
Cc1cn2c(/C=N/N=C(N)N)c(-c3cccnc3)nc2s1 | 33.3 | 38.6 |  | 16.1 | 58.9 | 25.8 | 35.8 | 35.2 | 55 |  | 15.9 | 3.66 | 4.18 | 10.1 | 24.2 | 8.91 | 11.5 | 12.9 | 11.5 | 4.38
CCOC(=O)/C(=C(/C)NCC(C)C)c1cc(O)c(O)c2c(C)cc(=O)[nH]c12 | > 100 | > 100 |  | > 100 | > 100 | > 100 | > 100 | > 100 | 55.5 |  | 13 | 3.8 | > 100 | 4 | 94.1 | 3.5 | 7.99 | 4.67 | 4.95 | 1.4
CC[C@@H]1C[C@H]2CC3c4[nH]c5ccc(O)cc5c4CCN(C2)C31 |  | > 100 | > 100 | > 100 | > 100 | > 100 | > 100 | > 100 | > 100 |  |  |  |  |  |  |  |  |  |  | 
CSCCOC(=O)C(=[N+]=[N-])c1ccc([N+](=O)[O-])cc1 | > 100 | > 100 | > 100 | > 100 | > 100 | > 100 | > 100 | > 100 | > 100 |  |  |  |  |  |  |  |  |  |  | 
COc1ccc(-c2cc(-c3ccc(O)cc3)nc3n[nH]c(N)c23)cc1 |  | > 100 |  | > 100 | 66.8 | 87.9 | 56.2 | 38.1 | 81.8 |  |  | 26.9 | 22.6 | 14.9 | 50.3 | 21.1 | 18.2 | 19.6 | 15.6 | 21.6
CCC[CH2][Sn]1([CH2]CCC)[O]C(=O)c2ccc(C)cc2[O]1 | 2.75 | 0.621 | 2.38 | 2.97 | 0.76 | 1.42 | 1.46 | 0.4 | 0.874 | 1.14 µM | 1.4 | 0.222 | 1.34 |  |  | 0.21 | 0.404 | 0.46 | 0.174 | 0.222
COc1ccc(OC(C(=O)O)c2ccccc2)c2c1CCCC2=O (stereo unspecified) | > 100 | > 100 | > 100 | > 100 | > 100 | > 100 | > 100 | > 100 | > 100 |  |  |  |  |  |  |  |  |  |  | 
CNC(=O)c1cccc2c(Nc3ccc(NS(C)(=O)=O)cc3OC)c3cccc(C)c3nc12 | 0.907 | 0.0512 | 2.34 | 3.69 | 1.7 | 0.322 | 8.58 | 5.5 | 0.197 |  |  |  |  |  |  |  |  |  |  | 
CC(C)(C)OC(=O)NC(CO)c1cccc(OCc2ccccc2)c1 (stereo unspecified) | > 100 | > 100 | > 100 | > 100 | > 100 | > 100 | > 100 | > 100 | > 100 |  |  |  |  |  |  |  |  |  |  | 
CC1(C)CCC(C)(C)c2c1ccc(O)c2Cc1c(O)ccc2c1C(C)(C)CCC2(C)C | 4.84 | 4.71 |  | 4.4 | 4.47 | 3.19 | 6.75 | 5.05 | 5.75 |  |  |  |  |  | 3.22 |  |  |  |  | 
